Measured values reported in ChEMBL document CHEMBL5257091, “Hydrazinecarbonyl-thiazol-2-acetamides with pronounced apoptotic behavior: synthesis, in vitro/in vivo anti-proliferative activity and molecular modeling simulations” (Bioorg Med Chem Lett, 2023).

Columns and labels:
[1] = tested on: HeLa; assay: Antiproliferative activity against human HeLa cells assessed as inhibition of cell growth incubated for 24 hrs by MTT assay; format: functional, cell-based
[2] = tested on: MCF7; assay: Antiproliferative activity against human MCF7 cells assessed as inhibition of cell growth incubated for 24 hrs by MTT assay; format: functional, cell-based; settings: MCF7, 24 h
[3] = tested on: HCT-116; assay: cells; settings: Homo sapiens, HCT-116, 24 h
Description: Antiproliferative activity against human HCT-116 cells assessed as inhibition of cell growth incubated for 24 hrs by MTT assay

[4] = tested on: HEp-2; assay: Antiproliferative activity against human HEp-2 cells assessed as inhibition of cell growth incubated for 24 hrs by MTT assay; format: functional, cell-based; settings: HEp-2, 24 h
[5] = tested on: PC-3; assay: Antiproliferative activity against human PC-3 cells assessed as inhibition of cell growth incubated for 24 hrs by MTT assay; format: functional, cell-based; settings: PC-3, 24 h
[6] = tested on: HepG2; assay: Antiproliferative activity against human HepG2 cells assessed as inhibition of cell growth incubated for 24 hrs by MTT assay; format: functional, cell-based; settings: HepG2, 24 h
[7] = Cytotoxicity against human WI-38 cells assessed as inhibition of cell growth incubated for 24 hrs by MTT assay; format: toxicity, cell-based
[8] = Selectivity index, ratio of IC50 for cytotoxicity against human WI-38 cells to IC50 for antiproliferative activity against human PC-3 cells; format: toxicity, cell-based; settings: WI-38 cells and PC-3 cells, read-out: Ratio IC50
[9] = Selectivity index, ratio of IC50 for cytotoxicity against human WI-38 cells to IC50 for antiproliferative activity against human HepG2 cells; format: toxicity, cell-based; settings: WI-38 cells and HepG2 cells, read-out: Ratio IC50
[10] = target: Epidermal growth factor receptor (Homo sapiens, UniProt P00533); assay: Inhibition of EGFR (unknown origin) by fluorimetric assay
[11] = target: T1, Dihydrofolate reductase (Homo sapiens, UniProt P00374); assay: Inhibition of DHFR (unknown origin) incubated for 2 to 5 mins by absorbance based analysis
T1 sequence (P00374 whole entry): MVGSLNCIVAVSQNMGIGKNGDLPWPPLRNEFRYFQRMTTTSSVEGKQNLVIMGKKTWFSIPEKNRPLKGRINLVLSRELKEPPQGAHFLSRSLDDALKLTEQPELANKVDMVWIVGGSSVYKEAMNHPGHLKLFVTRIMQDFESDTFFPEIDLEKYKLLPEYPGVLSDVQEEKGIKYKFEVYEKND

[12] = Selectivity index, ratio of IC50 for cytotoxicity against human WI-38 cells to IC50 for antiproliferative activity against human HCT-116 cells; format: toxicity, cell-based; settings: WI-38 cells and HCT-116 cells, read-out: Ratio IC50
[13] = Selectivity index, ratio of IC50 for cytotoxicity against human WI-38 cells to IC50 for antiproliferative activity against human HeLa cells; format: toxicity, cell-based; settings: WI-38 cells and HeLa cells, read-out: Ratio IC50
[14] = Selectivity index, ratio of IC50 for cytotoxicity against human WI-38 cells to IC50 for antiproliferative activity against human MCF7 cells; format: toxicity, cell-based; settings: WI-38 cells and MCF7 cells, read-out: Ratio IC50
[15] = Selectivity index, ratio of IC50 for cytotoxicity against human WI-38 cells to IC50 for antiproliferative activity against human HEp-2 cells; format: toxicity, cell-based; settings: WI-38 cells and HEp-2 cells, read-out: Ratio IC50

Sequence of Epidermal growth factor receptor (P00533 whole entry): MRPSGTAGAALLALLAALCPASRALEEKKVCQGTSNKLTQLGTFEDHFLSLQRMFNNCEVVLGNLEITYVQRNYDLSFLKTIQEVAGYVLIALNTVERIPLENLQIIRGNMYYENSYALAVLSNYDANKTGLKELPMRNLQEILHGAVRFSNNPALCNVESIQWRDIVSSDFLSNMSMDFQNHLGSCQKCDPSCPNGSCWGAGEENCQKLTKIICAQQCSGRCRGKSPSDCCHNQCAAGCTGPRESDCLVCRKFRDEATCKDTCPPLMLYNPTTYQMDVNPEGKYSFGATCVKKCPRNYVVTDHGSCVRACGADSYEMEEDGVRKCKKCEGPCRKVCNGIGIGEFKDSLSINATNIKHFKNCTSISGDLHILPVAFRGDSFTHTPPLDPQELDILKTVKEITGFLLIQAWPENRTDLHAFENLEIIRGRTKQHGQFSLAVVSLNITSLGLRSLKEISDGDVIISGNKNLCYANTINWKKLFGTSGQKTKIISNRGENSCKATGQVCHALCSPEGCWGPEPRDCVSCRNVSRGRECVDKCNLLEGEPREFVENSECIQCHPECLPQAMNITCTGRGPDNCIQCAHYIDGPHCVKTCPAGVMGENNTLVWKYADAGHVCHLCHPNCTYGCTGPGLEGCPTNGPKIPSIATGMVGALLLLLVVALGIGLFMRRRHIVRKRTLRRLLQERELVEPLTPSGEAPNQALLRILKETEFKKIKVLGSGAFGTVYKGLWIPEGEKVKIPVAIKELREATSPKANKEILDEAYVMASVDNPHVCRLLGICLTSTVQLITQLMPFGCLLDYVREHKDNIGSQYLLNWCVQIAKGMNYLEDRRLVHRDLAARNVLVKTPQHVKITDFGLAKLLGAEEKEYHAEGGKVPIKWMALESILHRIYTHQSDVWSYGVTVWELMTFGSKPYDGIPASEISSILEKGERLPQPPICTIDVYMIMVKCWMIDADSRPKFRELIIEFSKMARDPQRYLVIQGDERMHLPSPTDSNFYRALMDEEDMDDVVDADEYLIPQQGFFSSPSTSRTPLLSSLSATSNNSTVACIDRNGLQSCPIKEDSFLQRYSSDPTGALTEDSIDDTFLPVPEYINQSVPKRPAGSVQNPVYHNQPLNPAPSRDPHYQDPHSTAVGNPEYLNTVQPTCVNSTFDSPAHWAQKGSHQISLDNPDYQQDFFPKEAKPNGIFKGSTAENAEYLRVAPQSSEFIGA

| SMILES | IC50 [1] | IC50 [2] | IC50 [3] | IC50 [4] | IC50 [5] | IC50 [6] | IC50 at 24 h [7] | selectivity ratio [8] | selectivity ratio [9] | IC50 [10] | IC50 [11] | selectivity ratio [12] | selectivity ratio [13] | selectivity ratio [14] | selectivity ratio [15] |
| --- | --- | --- | --- | --- | --- | --- | --- | --- | --- | --- | --- | --- | --- | --- | --- |
| CC(=O)Nc1nc(C(=O)NNC(=O)CCN2CCN(Cc3ccccc3)CC2)cs1 | 23.6 µM | 29.3 µM | 37.1 µM | 39 µM | 34.4 µM | 28.7 µM | – | – | – | – | – | – | – | – | – |
| CC(=O)Nc1nc(C(=O)NNC(=O)CN2CCN(C)CC2)cs1 | 78.6 µM | 62.8 µM | 91.8 µM | 89.9 µM | – | 83.6 µM | – | – | – | – | – | – | – | – | – |
| CC(=O)Nc1nc(C(=O)NNC(=O)CCN2CCOCC2)cs1 | 3.81 µM | 5.81 µM | 13.2 µM | 9.19 µM | 10.5 µM | 7.34 µM | 53.5 µM | 5.08 | 7.29 | 0.143 µM | 0.159 µM | 4.06 | 14 | 9.2 | 5.82 |
| CC(=O)Nc1nc(C(=O)NNC(=O)CCl)cs1 | 35.3 µM | 39.1 µM | 52.3 µM | 58 µM | 54.7 µM | 43.8 µM | – | – | – | – | – | – | – | – | – |
| CCC(=O)NNC(=O)c1csc(NC(C)=O)n1 | 26.9 µM | 32.8 µM | 42.7 µM | 43.2 µM | 47.5 µM | 39.3 µM | – | – | – | – | – | – | – | – | – |
| CC(=O)Nc1nc(C(=O)NNC(=O)CN2CCN(Cc3ccccc3)CC2)cs1 | 52.6 µM | 57.7 µM | 66 µM | 84.8 µM | 92.3 µM | 74.5 µM | – | – | – | – | – | – | – | – | – |
| CC(=O)Nc1nc(C(=O)NNC(=O)CN2CCOCC2)cs1 | 15.5 µM | 13.6 µM | 26.4 µM | 17.2 µM | 29.8 µM | 20.8 µM | 37.2 µM | 1.25 | 1.79 | – | – | 1.41 | 2.42 | 2.73 | 2.17 |
